Laboratory results: US11827627B2, “N-(hydroxyalkyl (hetero)aryl) tetrahydrofuran carboxamides as modulators of sodium channels” (VERTEX PHARMACEUTICALS INCORPORATED, priority 2021, dated 2023)

Each molecule was assayed against human NaV 1.8 (Homo sapiens, UniProt Q9Y5Y9) (assay: E-VIPR assay detecting and measuring NaV inhibition properties). Conditions: HEK cells expressing a truncated form of human NaV 1.8; electrical stimulation, membrane potential FRET dyes.
Assay type: cell-based
Excerpt: E-VIPR Assay Detecting and Measuring NaV Inhibition Properties
Sodium ion channels are voltage-dependent proteins that can be activated by inducing membrane voltage changes by applying electric fields. The electrical stimulation instrument and methods of use, referred to as E-VIPR, are described in International Publication No. WO 2002/008748 A3 and C.-J. Huang et al. Characterization of voltage-gated sodium channel blockers by electrical stimulation and fluorescence detection of membrane potential, 24 Nature Biotech. 439-46 (2006), both of which are incorporated by reference in their entirety. The instrument comprises a microtiter plate handler, an optical system for exciting the coumarin dye while simultaneously recording the coumarin and oxonol emissions, a waveform generator, a current- or voltage-controlled amplifier, and parallel electrode pairs that are inserted into assay plate wells. Under integrated computer control, this instrument passes user-programmed electrical stimulus protocols to cells within the wells of the microtiter plate.
16-20 hours prior to running the assay on E-VIPR, HEK cells expressing a truncated form of human NaV 1.8 with full channel activity were seeded into microtiter 384-well plates, pre-coated with matrigel, at a density of 25,000 cells per well. 2.5-5% KIR2.1 Bacmam virus was added to the final cell suspension before seeding into cell plates. HEK cells were grown in Dulbecco's Modified Eagle's Medium (DMEM) supplemented with 10% FBS (Fetal Bovine Serum, qualified; Sigma #F4135), 1% NEAA (Non-Essential Amino Acids, Gibco #11140), 1% HEPES (Gibco #15630), 1% Pen-Strep (Penicillin-Streptomycin; Gibco #15140) and 5 μg/ml Blasticidin (Gibco #R210-01). Cells were expanded in vented cap cell culture flasks, with 90-95% humidity and 5% CO2.
Reagents and Stock Solutions:
100 mg/mL Pluronic F-127 (Sigma #P2443), in dry DMSO
Compound Plates: Corning 384-well Polypropylene Round Bottom #3656
Cell Plates: 384-well tissue culture treated plates (Greiner #781091-2B)
2.5-5% KIR 2.1 Bacmam virus (produced in-house), prepared as described in Section 3.3 of J. A. Fornwald et al., Gene Expression in Mammalian Cells Using BacMam, a Modified Baculovirus System, 1350 Methods in Molecular Biology 95-116 (2016), the entire contents of which are incorporated by reference. The concentration used can be dependent on viral titer of each batch.
5 mM DiSBAC6(3), a voltage sensitive oxonol acceptor (CAS number 169211-44-3; 5-[3-(1,3-dihexylhexahydro-4,6-dioxo-2-thioxo-5-pyrimidinyl)-2-propen-1-ylidene]-1,3-dihexyldihydro-2-thioxo-4,6(1H,5H)-pyrimidinedione), in dry DMSO. The preparation of DiSBAC6(3) is analogous to that of DiSBAC4(3) as described in Voltage Sensing by Fluorescence Resonance Energy Transfer in Single Cells, Gonzalez, J. E. and Tsien, R. Y. (1995) Biophys. J. 69, 1272-1280.
5 mM CC2-DMPE, a commercially available membrane-bound coumarin phospholipid FRET donor (ThermoFisher Scientific catalog number K1017, CAS number 393782-57-5; tetradecanoic acid, 1,1′-[(1R)-1-[8-(6-chloro-7-hydroxy-2-oxo-2H-1-benzopyran-3-yl)-3-hydroxy-3-oxido-8-oxo-2,4-dioxa-7-aza-3-phosphaoct-1-yl]-1,2-ethanediyl]ester) was prepared in dry DMSO. See also, Improved indicators of cell membrane potential that use fluorescence resonance energy transfer, Gonzalez, J. E. and Tsien, R. Y. (1997) Chem. Biol. 4, 269-277.
Voltage Assay Background Suppression Compound (VABSC-1) is prepared in H2O (89-363 mM, range used to maintain solubility)
Human Serum (HS, Millipore #S1P1-01KL, or Sigma SLBR5469V and SLBR5470V as a 50%/50% mixture, for 25% assay final concentration)
Bath 1 Buffer: • Sodium Chloride 160 mM (9.35 g/L), Potassium Chloride, 4.5 mM (0.335 g/L), Glucose 10 mM (1.8 g/L), Magnesium Chloride (Anhydrous) 1 mM (0.095 g/L), Calcium Chloride 2 mM (0.222 g/L), HEPES 10 mM (2.38 g/L) in water. […]

Sequence of human NaV 1.8 (Q9Y5Y9 126-1722 limits assumed): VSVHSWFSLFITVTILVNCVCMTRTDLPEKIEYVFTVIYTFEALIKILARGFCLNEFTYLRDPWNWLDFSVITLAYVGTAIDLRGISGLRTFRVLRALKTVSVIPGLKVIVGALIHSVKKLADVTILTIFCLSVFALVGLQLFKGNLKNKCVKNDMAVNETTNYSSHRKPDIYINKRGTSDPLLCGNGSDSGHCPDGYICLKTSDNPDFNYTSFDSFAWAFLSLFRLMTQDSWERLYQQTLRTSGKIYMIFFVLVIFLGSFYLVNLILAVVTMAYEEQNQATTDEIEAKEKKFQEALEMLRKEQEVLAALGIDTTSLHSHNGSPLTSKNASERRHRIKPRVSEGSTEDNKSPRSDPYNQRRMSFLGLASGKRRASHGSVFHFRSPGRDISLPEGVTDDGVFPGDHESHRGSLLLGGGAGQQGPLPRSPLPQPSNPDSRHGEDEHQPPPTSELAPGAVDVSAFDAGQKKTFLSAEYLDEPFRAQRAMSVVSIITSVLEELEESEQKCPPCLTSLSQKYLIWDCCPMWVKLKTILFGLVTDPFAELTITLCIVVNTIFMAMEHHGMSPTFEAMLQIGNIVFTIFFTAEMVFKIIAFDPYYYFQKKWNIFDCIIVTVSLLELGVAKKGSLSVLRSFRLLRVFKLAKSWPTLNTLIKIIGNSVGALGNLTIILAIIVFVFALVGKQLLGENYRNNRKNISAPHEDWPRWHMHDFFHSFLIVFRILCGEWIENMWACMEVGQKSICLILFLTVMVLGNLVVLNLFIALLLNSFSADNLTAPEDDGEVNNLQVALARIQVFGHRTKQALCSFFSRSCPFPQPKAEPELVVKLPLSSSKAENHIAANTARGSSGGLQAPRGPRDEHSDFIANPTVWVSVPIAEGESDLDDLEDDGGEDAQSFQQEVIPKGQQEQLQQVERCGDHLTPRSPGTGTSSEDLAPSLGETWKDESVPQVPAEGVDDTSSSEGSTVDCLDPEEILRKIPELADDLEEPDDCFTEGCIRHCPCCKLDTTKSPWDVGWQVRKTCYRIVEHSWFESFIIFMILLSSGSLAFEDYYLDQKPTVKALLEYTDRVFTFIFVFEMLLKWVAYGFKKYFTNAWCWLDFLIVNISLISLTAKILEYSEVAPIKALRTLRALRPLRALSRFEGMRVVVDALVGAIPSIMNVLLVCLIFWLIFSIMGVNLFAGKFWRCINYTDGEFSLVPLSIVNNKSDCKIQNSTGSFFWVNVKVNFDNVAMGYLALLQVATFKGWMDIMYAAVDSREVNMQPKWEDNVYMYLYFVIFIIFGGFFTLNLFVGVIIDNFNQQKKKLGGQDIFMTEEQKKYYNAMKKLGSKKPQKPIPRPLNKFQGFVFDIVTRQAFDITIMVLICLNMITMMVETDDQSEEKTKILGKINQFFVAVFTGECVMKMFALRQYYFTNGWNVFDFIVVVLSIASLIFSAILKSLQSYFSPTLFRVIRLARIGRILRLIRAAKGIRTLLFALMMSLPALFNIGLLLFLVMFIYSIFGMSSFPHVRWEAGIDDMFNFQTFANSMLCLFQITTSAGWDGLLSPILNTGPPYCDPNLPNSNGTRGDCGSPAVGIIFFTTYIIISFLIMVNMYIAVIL

`COc1c([C@H]2[C@H](C(=O)Nc3ccc([C@@H](O)CO)[n+]([O-])c3)O[C@@](C)(C(F)(F)F)[C@H]2C)ccc(F)c1F` [Compound 60, 5-((2R,3S,4S,5R)-3-(3,4-difluoro-2-methoxyphenyl)-4,5-dimethyl-5-(trifluoromethyl)tetrahydrofuran-2-carboxamido)-2-((R)-1,2-dihydroxyethyl)pyridine 1-oxide] and `COc1c([C@H]2[C@H](C(=O)Nc3ccc([C@@H](O)CO)nc3)O[C@@](C)(C(F)(F)F)[C@H]2C)ccc(F)c1F` (single isomer, unassigned) [Compound 1] cannot be ordered by IC50: < 10 nM for the first, < 10 nM for the second.

`COc1c([C@@H]2C[C@](C)(C(F)(F)F)O[C@H]2C(=O)Nc2ccc([C@H](O)CO)nc2)ccc(F)c1F` (single isomer, unassigned) [Compound 26, rel-(2R,3S,5R)-3-(3,4-difluoro-2-methoxyphenyl)-N-(6-((S*)-1,2-dihydroxyethyl)pyridin-3-yl)-5-methyl-5-(trifluoromethyl)tetrahydrofuran-2-carboxamide] and `CCOc1c([C@@H]2C[C@](C)(C(F)(F)F)O[C@H]2C(=O)Nc2ccc([C@H](O)CO)nc2)ccc(F)c1F` (single isomer, unassigned) [Compound 33, rel-(2R,3S,5R)-N-(6-((S*)-1,2-dihydroxyethyl)pyridin-3-yl)-3-(2-ethoxy-3,4-difluorophenyl)-5-methyl-5-(trifluoromethyl)tetrahydrofuran-2-carboxamide] fall in the same range of IC50: 100 to 1000 nM for the first, 100 to 1000 nM for the second.

Going from `COc1c([C@@H]2[C@@H](C(=O)Nc3ccc([C@H](O)CO)nc3)O[C@](C)(C(F)(F)F)[C@@H]2C)ccc(F)c1C(F)F` (single isomer, unassigned) [Compound 48, rel-(2S,3R,4R,5S)-3-(3-(difluoromethyl)-4-fluoro-2-methoxyphenyl)-N-(6-((S*)-1,2-dihydroxyethyl)pyridin-3-yl)-4,5-dimethyl-5-(trifluoromethyl)tetrahydrofuran-2-carboxamide] to `COc1c([C@H]2[C@H](C(=O)Nc3ccc([C@H](O)CO)nc3)O[C@@](C)(C(F)(F)F)[C@H]2C)ccc(F)c1C(F)F` (single isomer, unassigned) [Compound 49, rel-(2R,3S,4S,5R)-3-(3-(difluoromethyl)-4-fluoro-2-methoxyphenyl)-N-(6-((S*)-1,2-dihydroxyethyl)pyridin-3-yl)-4,5-dimethyl-5-(trifluoromethyl)tetrahydrofuran-2-carboxamide], the IC50 falls from ≥ 1000 nM to < 10 nM. The second is the more potent here.

First: COc1c([C@H]2[C@H](C(=O)Nc3cnc(CO)nc3)O[C@@](C)(C(F)(F)F)[C@H]2C)ccc(F)c1F [Compound 15, (2R,3S,4S,5R)-3-(3,4-difluoro-2-methoxyphenyl)-N-(2-(hydroxymethyl)pyrimidin-5-yl)-4,5-dimethyl-5-(trifluoromethyl)tetrahydrofuran-2-carboxamide]
Second: C[C@H]1[C@@H](c2ccc(F)c(F)c2O)[C@H](C(=O)Nc2cnc(CO)nc2)O[C@@]1(C)C(F)(F)F [Compound 39, (2R,3S,4S,5R)-3-(3,4-difluoro-2-hydroxyphenyl)-N-(2-(hydroxymethyl)pyrimidin-5-yl)-4,5-dimethyl-5-(trifluoromethyl)tetrahydrofuran-2-carboxamide]
The IC50 of the first is lower: < 10 nM for the first, ≥ 1000 nM for the second. The first is the more potent here.

`C[C@@]1(C(F)(F)F)C[C@H](c2ccc(OC(F)(F)F)cc2Cl)[C@@H](C(=O)Nc2ccc([C@@H](O)CO)nc2)O1` (single isomer, unassigned) [Compound 61, rel-(2S,3R,5S)-3-(2-chloro-4-(trifluoromethoxy)phenyl)-N-(6-((R*)-1,2-dihydroxyethyl)pyridin-3-yl)-5-methyl-5-(trifluoromethyl)tetrahydrofuran-2-carboxamide] and `CCOc1c([C@H]2C[C@@](C)(C(F)(F)F)O[C@@H]2C(=O)Nc2ccc([C@@H](O)CO)nc2)ccc(F)c1F` (single isomer, unassigned) [Compound 34, rel-(2S,3R,5S)-N-(6-((R*)-1,2-dihydroxyethyl)pyridin-3-yl)-3-(2-ethoxy-3,4-difluorophenyl)-5-methyl-5-(trifluoromethyl)tetrahydrofuran-2-carboxamide] cannot be ordered by IC50: ≥ 1000 nM for the first, ≥ 1000 nM for the second.

`COc1c(C2C(C(=O)Nc3ccc(CO)nc3)OC(C)(C(F)(F)F)C2C)cccc1C(F)(F)F` (single isomer, unassigned) [Compound 81] and `COc1c(C2C(C(=O)Nc3ccc(CO)nc3)OC(C)(C(F)(F)F)C2C)ccc(C(F)F)c1F` (single isomer, unassigned) [Compound 90] cannot be ordered by IC50: ≥ 1000 nM for the first, ≥ 1000 nM for the second.

First: Cc1c([C@H]2[C@H](C(=O)Nc3ccc([C@@H](O)CO)nc3)O[C@@](C)(C(F)(F)F)[C@H]2C)ccc(F)c1F (single isomer, unassigned) [Compound 66, rel-(2R,3S,4S,5R)-3-(3,4-difluoro-2-methylphenyl)-N-(6-((R*)-1,2-dihydroxyethyl)pyridin-3-yl)-4,5-dimethyl-5-(trifluoromethyl)tetrahydrofuran-2-carboxamide]
Second: CCOc1c([C@@H]2[C@@H](C(=O)Nc3ccc([C@H](O)CO)nc3)O[C@](C)(C(F)(F)F)[C@@H]2C)ccc(F)c1C (single isomer, unassigned) [Compound 43, rel-(2S,3R,4R,5S)-N-(6-((S*)-1,2-dihydroxyethyl)pyridin-3-yl)-3-(2-ethoxy-4-fluoro-3-methylphenyl)-4,5-dimethyl-5-(trifluoromethyl)tetrahydrofuran-2-carboxamide]
The IC50 of the first is lower: 10 to 100 nM for the first, ≥ 1000 nM for the second. The first is the more potent here.

First: COc1c([C@H]2[C@H](C(=O)Nc3ccc([C@@H](O)[C@@H](C)O)nc3)O[C@@](C)(C(F)(F)F)[C@H]2C)ccc(F)c1F (single isomer, unassigned) [Compound 3, rel-(2R*,3S*,4S*,5R*)-3-(3,4-difluoro-2-methoxyphenyl)-N-(6-((1R,2R)-1,2-dihydroxypropyl)pyridin-3-yl)-4,5-dimethyl-5-(trifluoromethyl)tetrahydrofuran-2-carboxamide]
Second: CC(C)Oc1c(C2C(C(=O)Nc3cnc(C(O)CO)nc3)OC(C)(C(F)(F)F)C2C)ccc(F)c1F (centres unmarked) [Compound 9]
The IC50 of the first is lower: < 10 nM for the first, 10 to 100 nM for the second.

First: COc1c([C@H]2[C@H](C(=O)Nc3cnc(CO)cn3)O[C@@](C)(C(F)(F)F)[C@H]2C)ccc(F)c1F [Compound 86, (2R,3S,4S,5R)-3-(3,4-difluoro-2-methoxyphenyl)-N-(5-(hydroxymethyl)pyrazin-2-yl)-4,5-dimethyl-5-(trifluoromethyl)tetrahydrofuran-2-carboxamide]
Second: COc1c(C2C(C(=O)Nc3ccc(CO)nc3)OC(C)(C(F)(F)F)C2C)cccc1C(F)(F)F (single isomer, unassigned) [Compound 82]
The IC50 of the first is higher: 10 to 100 nM for the first, < 10 nM for the second.

`COc1nc(C(F)F)ccc1[C@@H]1[C@@H](C(=O)Nc2ccc(CO)nc2)O[C@](C)(C(F)(F)F)[C@@H]1C` (stereo in doubt) [Compound 89, rel-(2S,3R,4R,5S)-3-(6-(difluoromethyl)-2-methoxypyridin-3-yl)-N-(6-(hydroxymethyl)pyridin-3-yl)-4,5-dimethyl-5-(trifluoromethyl)tetrahydrofuran-2-carboxamide] and `COc1c([C@@H]2[C@@H](C(=O)Nc3cnc(C(O)CO)nc3)O[C@](C)(C(F)(F)F)[C@@H]2C)cccc1C(F)(F)F` (single isomer, unassigned) [Compound 72] cannot be ordered by IC50: ≥ 1000 nM for the first, ≥ 1000 nM for the second.
